The source of these data is patent US5618724A, “Antibiotics GE 37468 A, B and C” (Gruppo Lepetit SpA, priority 1996, dated 1997).

Experiment [1] has as its system Staphylococcus aureus Smith. The conditions noted are these: Iso-Sensitest broth, 10^4 CFU/ml, 20-24 h, 37° C.
Experiment [2] relates to Clostridium perfringens L290. The settings on record: Wilkins-Chalgren broth, 10^5 CFU/ml, 48 h, N2:CO2:H2 (80:10:10).
In experiment [3] the test system is Enterococcus faecalis ATCC 7080. The settings on record: Iso-Sensitest broth, 10^4 CFU/ml, 20-24 h, 37° C.
The test system of experiment [4] is Propionibacterium acnes ATCC 6919. Put plainly: MIC by broth microdilution. Type of experiment: cell-based. The settings on record: Wilkins-Chalgren broth, 10^5 CFU/ml, 48 h, N2:CO2:H2 (80:10:10).
For experiment [5], the system named is Staphylococcus haemolyticus L602. The conditions noted are these: Iso-Sensitest broth, 10^4 CFU/ml, 20-24 h, 37° C.
For experiment [6], the system named is Staphylococcus epidermidis ATCC 12228. The conditions noted are these: Iso-Sensitest broth, 10^4 CFU/ml, 20-24 h, 37° C.
Experiment [7] relates to Staphylococcus aureus L165. The settings on record: Iso-Sensitest broth, 10^4 CFU/ml, 20-24 h, 37° C.

On to `Cc1oc2nc1C(=O)NC(CC(N)=O)c1nc(cs1)C(=O)NC(Cc1ccccc1)C1=NC(CS1)C(=O)NC(Cc1ccc(O)cc1)C(=O)N1C(O)CC(C)C1c1nc(cs1)-c1nc(cs1)-c1nc(-c3nc(C(N)=O)cs3)ccc1-2` (centres unmarked) [GE37468B], for which the M.I.C. in experiment [1] is 0.03 microgram/ml; in experiment [2], 0.016 microgram/ml; in experiment [3], 0.03 microgram/ml; in experiment [4], 0.016 microgram/ml; in experiment [5] it was 0.13 microgram/ml; in experiment [6], 0.06 microgram/ml. The molecule also gave a M.I.C. in experiment [7] of 0.03 microgram/ml.
For `C=C(NC(=O)c1csc(-c2ccc3c(n2)-c2csc(n2)-c2csc(n2)C2C(C)CC(O)N2C(=O)C(Cc2ccc(O)cc2)NC(=O)C2CSC(=N2)C(Cc2ccccc2)NC(=O)c2csc(n2)C(CC(N)=O)NC(=O)c2nc-3oc2C)n1)C(N)=O` (centres unmarked) [GE37468C], the M.I.C. in experiment [1] turned out to be 0.03 microgram/ml; in experiment [2], 0.016 microgram/ml; in experiment [3], 0.03 microgram/ml; in experiment [4], 0.616 microgram/ml; in experiment [5], 0.13 microgram/ml; in experiment [6] it was 0.25 microgram/ml. This molecule also displayed a M.I.C. in experiment [7] of 0.03 microgram/ml.
